Measurements reported in patent publication US9113629B2, “4-amino-6-(4-substituted-phenyl)-picolinates and 6-amino-2-(4-substituted-phenyl)-pyrimidine-4-carboxylates and their use as herbicides” (DOW AGROSCIENCES LLC, priority 2013, dated 2015).
Like-named read-outs stand apart in the source and are kept apart here.

Tests used:
[1] = system: Key Broadleaf Weed and Crop Species; test: Post-emergent Test II herbicidal activity (Table 5); assay type: in vivo; details: post-emergence, 336 h, post-emergent, 14 days after application; for pest or weed control at 70 g/ha: 70 g ai/ha; for pest or weed control at 140 g/ha: 140 g ai/ha
Method in brief: (§1)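 Greenhouse-grown plants at first or second true leaf stage were sprayed post-emergence with compound in acetone/DMSO-based aqueous spray containing crop oil concentrate and surfactant, at 187 L/ha, highest rate plus ½× to 1/16× dilutions. After 14 d, injury was scored visually versus untreated plants, 0 (none) to 100% (complete kill).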

[2] = system: Key Grass and Sedge Weeds as well as Grass Crops; test: Post-emergent Test II herbicidal activity (Table 6); assay type: in vivo; details: post-emergence, 336 h; for pest or weed control at 70 g/ha: application rate 70 g ai/ha; for pest or weed control at 140 g/ha: application rate 140 g ai/ha
Method in brief: as §1

[3] = ABUTH: velvetleaf (Abutilon theophrasti), read-out: Visual Growth Reduction (%) 14 Days After Application ABUTH
[4] = AMARE: redroot pigweed (Amaranthus retroflexus), read-out: Visual Growth Reduction (%) 14 Days After Application AMARE
[5] = BRSNN: oilseed-rape, canola (Brassica napus), read-out: Visual Growth Reduction (%) 14 Days After Application BRSNN
[6] = CHEAL: lambsquarters (Chenopodium album), read-out: Visual Growth Reduction (%) 14 Days After Application CHEAL
[7] = EPHHL: wild poinsettia (Euphorbia heterophylla), read-out: Visual Growth Reduction (%) 14 Days After Application EPHHL
[8] = HELAN: sunflower (Helianthus annuus), read-out: Visual Growth Reduction (%) 14 Days After Application HELAN
[9] = VIOTR: wild pansy (Viola tricolor), read-out: Visual Growth Reduction (%) 14 Days After Application VIOTR
[10] = Triticum aestivum, TRZSS (wheat), read-out: Visual Growth Reduction (%) 14 Days After Application, TRZSS
[11] = CYPES: yellow nutsedge (Cyperus esculentus), read-out: Visual Growth Reduction (%) 14 Days After Application, CYPES
[12] = DIGSA: crabgrass (Digitaria sanguinalis), read-out: Visual Growth Reduction (%) 14 Days After Application, DIGSA
[13] = ECHCG: barnyardgrass (Echinochloa crus-galli), read-out: Visual Growth Reduction (%) 14 Days After Application, ECHCG
[14] = ORYSA: rice (Oryza sativa), read-out: Visual Growth Reduction (%) 14 Days After Application, ORYSA
[15] = SETFA: giant foxtail (Setaria faberi), read-out: Visual Growth Reduction (%) 14 Days After Application, SETFA
[16] = SORVU: grain sorghum (Sorghum vulgare), read-out: Visual Growth Reduction (%) 14 Days After Application, SORVU
[17] = ZEAMX: maize, corn (Zea mays), read-out: Visual Growth Reduction (%) 14 Days After Application, ZEAMX

COC(=O)c1nc(-c2ccc(I)cc2)c(Cl)c(N)c1Cl [Compound 96]
95 to 100%: pest or weed control at 70 g/ha [1, 3] | pest or weed control at 140 g/ha [1, 3] | pest or weed control at 140 g/ha [1, 4] | pest or weed control at 70 g/ha [1, 6] | pest or weed control at 140 g/ha [1, 6] | pest or weed control at 70 g/ha [1, 8] | pest or weed control at 140 g/ha [1, 8] | pest or weed control at 70 g/ha [2, 11] | pest or weed control at 140 g/ha [2, 11]
60 to 74%: pest or weed control at 70 g/ha [2, 10] | pest or weed control at 70 g/ha [2, 12] | pest or weed control at 140 g/ha [2, 13] | pest or weed control at 70 g/ha [2, 15]
75 to 84%: pest or weed control at 70 g/ha [1, 5] | pest or weed control at 70 g/ha [1, 7] | pest or weed control at 140 g/ha [2, 10] | pest or weed control at 140 g/ha [2, 12] | pest or weed control at 140 g/ha [2, 15] | pest or weed control at 70 g/ha [2, 17] | pest or weed control at 140 g/ha [2, 17]
45 to 59%: pest or weed control at 140 g/ha [1, 7]
85 to 94%: pest or weed control at 70 g/ha [1, 4] | pest or weed control at 140 g/ha [1, 5] | pest or weed control at 70 g/ha [2, 16] | pest or weed control at 140 g/ha [2, 16]
0 to 29%: pest or weed control at 70 g/ha [1, 9] | pest or weed control at 140 g/ha [1, 9] | pest or weed control at 70 g/ha [2, 13] | pest or weed control at 70 g/ha [2, 14] | pest or weed control at 140 g/ha [2, 14]

COC(=O)c1nc(-c2cc(F)c(I)cc2F)c(Br)c(N)c1Cl [Compound 100]
45 to 59%: pest or weed control at 70 g/ha [1, 7] | pest or weed control at 140 g/ha [1, 7] | pest or weed control at 70 g/ha [2, 12] | pest or weed control at 140 g/ha [2, 17]
60 to 74%: pest or weed control at 70 g/ha [1, 5] | pest or weed control at 140 g/ha [1, 5] | pest or weed control at 140 g/ha [2, 10] | pest or weed control at 140 g/ha [2, 12]
30 to 44%: pest or weed control at 70 g/ha [2, 10]
85 to 94%: pest or weed control at 70 g/ha [1, 3] | pest or weed control at 140 g/ha [1, 3] | pest or weed control at 70 g/ha [1, 4] | pest or weed control at 70 g/ha [1, 8] | pest or weed control at 140 g/ha [1, 8]
95 to 100%: pest or weed control at 140 g/ha [1, 4] | pest or weed control at 70 g/ha [1, 6] | pest or weed control at 140 g/ha [1, 6]
0 to 29%: pest or weed control at 70 g/ha [1, 9] | pest or weed control at 140 g/ha [1, 9] | pest or weed control at 70 g/ha [2, 11] | pest or weed control at 140 g/ha [2, 11] | pest or weed control at 70 g/ha [2, 13] | pest or weed control at 140 g/ha [2, 13] | pest or weed control at 70 g/ha [2, 14] | pest or weed control at 140 g/ha [2, 14] | pest or weed control at 70 g/ha [2, 15] | pest or weed control at 140 g/ha [2, 15] | pest or weed control at 70 g/ha [2, 16] | pest or weed control at 140 g/ha [2, 16] | pest or weed control at 70 g/ha [2, 17]

COC(=O)c1nc(-c2cc(F)c(I)cc2F)nc(N)c1OC [Compound 101]
30 to 44%: pest or weed control at 70 g/ha [2, 10] | pest or weed control at 140 g/ha [2, 10] | pest or weed control at 70 g/ha [2, 16]
0 to 29%: pest or weed control at 70 g/ha [1, 9] | pest or weed control at 140 g/ha [1, 9] | pest or weed control at 70 g/ha [2, 13] | pest or weed control at 70 g/ha [2, 14] | pest or weed control at 140 g/ha [2, 14] | pest or weed control at 70 g/ha [2, 15]
95 to 100%: pest or weed control at 70 g/ha [1, 5] | pest or weed control at 140 g/ha [1, 5] | pest or weed control at 70 g/ha [1, 7] | pest or weed control at 140 g/ha [1, 7]
85 to 94%: pest or weed control at 70 g/ha [1, 3] | pest or weed control at 140 g/ha [1, 3] | pest or weed control at 70 g/ha [1, 4] | pest or weed control at 140 g/ha [1, 4] | pest or weed control at 70 g/ha [1, 6] | pest or weed control at 140 g/ha [1, 6] | pest or weed control at 70 g/ha [1, 8] | pest or weed control at 140 g/ha [1, 8] | pest or weed control at 140 g/ha [2, 13]
60 to 74%: pest or weed control at 140 g/ha [2, 12] | pest or weed control at 140 g/ha [2, 15] | pest or weed control at 70 g/ha [2, 17] | pest or weed control at 140 g/ha [2, 17]
45 to 59%: pest or weed control at 70 g/ha [2, 11] | pest or weed control at 140 g/ha [2, 11] | pest or weed control at 70 g/ha [2, 12] | pest or weed control at 140 g/ha [2, 16]
